From PubChem BioAssay AID1963963 (Molecular Pharmacology Branch, DTP, NCI, 2024)

System: 958667-338-R-J2-PDC tumor spheroids viability
Experiment: Anticancer human tumor 958667-338-R-J2-PDC patient-derived colon adenocarcinoma cell line growth inhibition [PI3K]
Settings: spheroids with HUVEC and MSC; for IC50: curve of first compound; for viability, T/C: stronger effect = lower value
Outline: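 Stroma-containing spheroids: tumor line, pooled-donor HUVEC, hMSC. Treatments: targeted agents with PI3K inhibitors. Dosing: clinically relevant, half-log spacing, 10 microM ceiling without known Cmax. Read-out: cell viability.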

[1] = second compound 0.0316 µM, first compound 0.0316 µM
[2] = second compound 0.0316 µM, first compound 0.1 µM
[3] = second compound 0.1 µM, first compound 0.0316 µM
[4] = second compound 0.1 µM, first compound 0.1 µM
[5] = second compound 0.316 µM, first compound 0.0316 µM
[6] = second compound 0.316 µM, first compound 0.1 µM
[7] = second compound 1 µM, first compound 0.0316 µM
[8] = second compound 1 µM, first compound 0.1 µM
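Further: spheroids exposed to compounds for seven days before readout.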

Cn1ncnc1[C@H]1c2n[nH]c(=O)c3cc(F)cc(c23)N[C@@H]1c1ccc(F)cc1 + CC(Nc1ccc2c(c1)OCCn1cc(N3C(=O)OCC3C(F)F)nc1-2)C(N)=O
IC50 (second compound 0.00316 µM): > 100 nM | IC50 (second compound 0.01 µM): > 100 nM | IC50 (second compound 0.0316 µM): > 100 nM | IC50 (second compound 0.1 µM): > 100 nM | IC50 (second compound 0.316 µM): > 100 nM | IC50 (second compound 1 µM): > 100 nM | viability, T/C (second compound 0.00316 µM, first compound 0.000316 µM): 111% | viability, T/C (second compound 0.00316 µM, first compound 0.001 µM): 107% | viability, T/C (second compound 0.00316 µM, first compound 0.00316 µM): 105% | viability, T/C (second compound 0.00316 µM, first compound 0.01 µM): 101% | viability, T/C (second compound 0.00316 µM, first compound 0.0316 µM): 112% | viability, T/C (second compound 0.00316 µM, first compound 0.1 µM): 95.9% | viability, T/C (second compound 0.01 µM, first compound 0.000316 µM): 93.8% | viability, T/C (second compound 0.01 µM, first compound 0.001 µM): 87.4% | viability, T/C (second compound 0.01 µM, first compound 0.00316 µM): 88.5% | viability, T/C (second compound 0.01 µM, first compound 0.01 µM): 117% | viability, T/C (second compound 0.01 µM, first compound 0.0316 µM): 85.7% | viability, T/C (second compound 0.01 µM, first compound 0.1 µM): 114% | viability, T/C (second compound 0.0316 µM, first compound 0.000316 µM): 82.8% | viability, T/C (second compound 0.0316 µM, first compound 0.001 µM): 95.9% | viability, T/C (second compound 0.0316 µM, first compound 0.00316 µM): 77.7% | viability, T/C (second compound 0.0316 µM, first compound 0.01 µM): 89.3% | viability, T/C [1]: 95.2% | viability, T/C [2]: 81.6% | viability, T/C (second compound 0.1 µM, first compound 0.000316 µM): 104% | viability, T/C (second compound 0.1 µM, first compound 0.001 µM): 82.4% | viability, T/C (second compound 0.1 µM, first compound 0.00316 µM): 82.4% | viability, T/C (second compound 0.1 µM, first compound 0.01 µM): 80.8% | viability, T/C [3]: 88.4% | viability, T/C [4]: 74.7% | viability, T/C (second compound 0.316 µM, first compound 0.000316 µM): 68.3% | viability, T/C (second compound 0.316 µM, first compound 0.001 µM): 65.2% | viability, T/C (second compound 0.316 µM, first compound 0.00316 µM): 75.5% | viability, T/C (second compound 0.316 µM, first compound 0.01 µM): 59.7% | viability, T/C [5]: 60.6% | viability, T/C [6]: 68.4% | viability, T/C (second compound 1 µM, first compound 0.000316 µM): 65.7% | viability, T/C (second compound 1 µM, first compound 0.001 µM): 50.8% | viability, T/C (second compound 1 µM, first compound 0.00316 µM): 61.6% | viability, T/C (second compound 1 µM, first compound 0.01 µM): 62.7% | viability, T/C [7]: 68.8% | viability, T/C [8]: 55.7%

Cn1ncc(Cl)c1-c1cc(C(=O)NC(CN)Cc2cccc(F)c2)sc1Cl (centres undefined) + Cc1nc(NC(=O)N2CCCC2C(N)=O)sc1-c1ccnc(C(C)(C)C(F)(F)F)c1
IC50 (second compound 0.0316 µM): 2450 nM | IC50 (second compound 0.1 µM): 2050 nM | IC50 (second compound 0.316 µM): 1880 nM | IC50 (second compound 1 µM): 1590 nM | IC50 (second compound 3.16 µM): 1310 nM | IC50 (second compound 10 µM): < 31.6 nM | viability, T/C [1]: 88.2% | viability, T/C [2]: 84.3% | viability, T/C (second compound 0.0316 µM, first compound 0.316 µM): 89.2% | viability, T/C (second compound 0.0316 µM, first compound 1 µM): 70.5% | viability, T/C (second compound 0.0316 µM, first compound 3.16 µM): 44.7% | viability, T/C (second compound 0.0316 µM, first compound 10 µM): 37.2% | viability, T/C [3]: 84.4% | viability, T/C [4]: 81.7% | viability, T/C (second compound 0.1 µM, first compound 0.316 µM): 97.5% | viability, T/C (second compound 0.1 µM, first compound 1 µM): 69.5% | viability, T/C (second compound 0.1 µM, first compound 3.16 µM): 41.3% | viability, T/C (second compound 0.1 µM, first compound 10 µM): 34.8% | viability, T/C [5]: 71.4% | viability, T/C [6]: 65.6% | viability, T/C (second compound 0.316 µM, first compound 0.316 µM): 64.6% | viability, T/C (second compound 0.316 µM, first compound 1 µM): 63.7% | viability, T/C (second compound 0.316 µM, first compound 3.16 µM): 39% | viability, T/C (second compound 0.316 µM, first compound 10 µM): 26.9% | viability, T/C [7]: 71.7% | viability, T/C [8]: 80.9% | viability, T/C (second compound 1 µM, first compound 0.316 µM): 57.3% | viability, T/C (second compound 1 µM, first compound 1 µM): 63.7% | viability, T/C (second compound 1 µM, first compound 3.16 µM): 31.2% | viability, T/C (second compound 1 µM, first compound 10 µM): 24.9% | viability, T/C (second compound 3.16 µM, first compound 0.0316 µM): 66.7% | viability, T/C (second compound 3.16 µM, first compound 0.1 µM): 64.4% | viability, T/C (second compound 3.16 µM, first compound 0.316 µM): 72% | viability, T/C (second compound 3.16 µM, first compound 1 µM): 56% | viability, T/C (second compound 3.16 µM, first compound 3.16 µM): 27.6% | viability, T/C (second compound 3.16 µM, first compound 10 µM): 18.1% | viability, T/C (second compound 10 µM, first compound 0.0316 µM): 49.4% | viability, T/C (second compound 10 µM, first compound 0.1 µM): 44.7% | viability, T/C (second compound 10 µM, first compound 0.316 µM): 46% | viability, T/C (second compound 10 µM, first compound 1 µM): 41.7% | viability, T/C (second compound 10 µM, first compound 3.16 µM): 23.8% | viability, T/C (second compound 10 µM, first compound 10 µM): 15.1%
